Experimental data published in article PMC6698751 (2019).

Legend:
[1] = test system: G18 O2'H glutamine-II riboswitch (RNA, riboswitch, 2'-deoxy at 18 (2'-hydroxyl of G18 removed)) CGUUCACCCUUCGGGGCGCAUGAAAUGGGAGUAGGGAACGGGAUUCUCAU; assay: isothermal titration calorimetry; details: 100 mM K+, 10 mM Mg2+; 40 mM HEPES-K pH 7.0, 298 K; 2-4 mM L-glutamine in syringe
[2] = test system: two-piece glutamine-II riboswitch (RNA, riboswitch) CGUUCACCCUUCGGGGCGCA/UGAAAUGGGAGUAGGGAACGGGAUUCUCAU; assay: isothermal titration calorimetry; details: 100 mM K+, 10 mM Mg2+; equimolar mixture of two strands, 40 mM HEPES-K pH 7.0, 298 K
[3] = test system: glutamine-II riboswitch (unmodified; RNA used for calorimetry) (RNA, riboswitch) CGUUCACCCUUCGGGGCGCAUGAAAUGGGAGUAGGGAACGGGAUUCUCAU; assay: isothermal titration calorimetry; details: 100 mM K+, 10 mM Mg2+; 40 mM HEPES-K pH 7.0 (7.2 in Figure 4 legend), 298 K; mean of three titrations
[4] = test system: C39Z glutamine-II riboswitch (RNA, riboswitch, zebularine at 39 (C39Z)) CGUUCACCCUUCGGGGCGCAUGAAAUGGGAGUAGGGAACGGGAUUCUCAU; assay: isothermal titration calorimetry; details: 100 mM K+, 10 mM Mg2+; 40 mM HEPES-K pH 7.0, 298 K; 2-4 mM L-glutamine in syringe
[5] = test system: glutamine-II riboswitch (RNA used for crystallization) (RNA, riboswitch, 5-bromocytidine at 8 and 9) CGUUCACCCUUCGGGGCGCAUGAAAUGGGAGUAGGGAACGGGAUUCUCAU; assay: X-ray crystallography, 2.3 Å; details: Mg2+ in PDB record; strand-exchanged dimer; metal ion directly bound to glutamine carboxylate
[6] = test system: C1Z glutamine-II riboswitch (RNA, riboswitch, zebularine at 1 (C1Z)) CGUUCACCCUUCGGGGCGCAUGAAAUGGGAGUAGGGAACGGGAUUCUCAU; assay: isothermal titration calorimetry; details: 100 mM K+, 10 mM Mg2+; 40 mM HEPES-K pH 7.0, 298 K; no measurable heat; 2-4 mM L-glutamine in syringe

Structure (SMILES): NC(=O)CC[C@H](N)C(=O)O
- binding [1]: no
- binding [2]: yes
- Kd [3]: 190 ± 90 µM
- binding [4]: no
- binding [5]: yes
- binding [6]: no
